Test results: patent US20260091031A1, “CGRP RECEPTOR ANTAGONISTS FOR TREATING CHEMOTHERAPY-INDUCED NAUSEA AND VOMITING (CINV)” (priority 2022, published 2026)

Legend:
[1] = system: vomiting induced by cisplatin or cyclophosphamide in the shrew; test: Vomiting events induced by cisplatin or cyclophosphamide; format: in vivo, shrew (Suncus Murinus); details: 3 mg/kg oral 6 hrs before cisplatin (6 mg/kg i.p.) or cyclophosphamide (40 mg/kg i.p.), monitored for 4 hrs
Description: Specifically, we have evaluated the effects of the oral administration of rimegepant, ubrogepant, atogepant and zavegepant (3 mg/kg) on vomiting events induced in the shrew by cisplatin (6 mg/kg i.p.) or cyclophosphamide (40 mg/kg i.p.). To allow complete gepant absorption and tissue distribution, cisplatin and cyclophosphamide have been administered 6 hrs after the gepants and animals monitored for 4 hrs.
FIG. 3. Effects of gepants on vomiting induced by cisplatin or cyclophosphamide in the shrew. Shrews (10 animals/group) have been orally administered with rimegepant, ubrogepant, atogepant and zavegepant (3 mg/kg) 6 hrs before the intraperitoneal injection of cisplatin (6 mg/kg) or cyclophosphamide (40 mg/kg) and the number of vomiting events evaluated for 4 hrs.

[2] = system: nausea induced by cisplatin or cyclophosphamide in the rat; test: Gaping events as index of nausea induced by cisplatin or cyclophosphamide; format: in vivo; details: 3 mg/kg oral 6 hrs before cisplatin (6 mg/kg i.p.) or cyclophosphamide (40 mg/kg i.p.), monitored for 4 hrs
Description: It is known that the induction of nausea by a chemical can be evaluated in rats measuring repetitive mouth opening (the so called “gaping”) (Autonomic Neuroscience, 2006, 129, 36-41). We have therefore evaluated the effects of rimegepant, ubrogepant, atogepant and zavegepant (3 mg/kg) on gaping prompted in rats by the anticancer drugs cisplatin (6 mg/kg, i.p.) or cyclophosphamide (40 mg/kg, i.p.). These drugs have been injected 6 hrs after the oral administration of the gepants to allow complete tissue drug absorption and distribution. Gaping was monitored for 4 hrs.
FIG. 2. Effects of gepants on nausea induced by cisplatin or cyclophosphamide in the rat. Rats (10 animals/group) received rimegepant, ubrogepant, atogepant and zavegepant orally (3 mg/kg) 6 hrs before an intraperitoneal injection of cisplatin (6 mg/kg) or cyclophosphamide (40 mg/kg). The number of gaping events were evaluated for 4 hrs as an index of nausea.

[3] = Accumulation of gepants in trigeminal ganglion and cerebral cortex after oral administration (LC/MS of tissue extracts); format: in vivo; details: rat, 3 mg/kg oral, 6 hrs after administration, transcardially perfused 10 min
Description: Animals have been transcardially perfused with cold saline for 10 min in order to remove blood contamination and the possible presence of gepants present in plasma. Upon perfusion, tissue specimens form the cerebral cortex (a region beyond the blood brain barrier) and from the trigeminal ganglion (a region before the blood brain barrier) have been collected and extracted with 10 volumes (weight/volume) of a solution of water/acetonitrile (50%/50%). Tissue extracts have been injected in a LC/MS apparatus to reveal the possible presence of the orally-administered gepants.
FIG. 1. Evaluation of the ability of gepants to accumulate within the trigeminal ganglion and cerebral cortex upon oral administration in the rat. […] Animals have been transcardially perfused for 10 min to remove contamination by gepants present in plasma.

SMILES: C[C@@H]1[C@H](c2c(F)ccc(F)c2F)C[C@H](NC(=O)c2cnc3c(c2)C[C@@]2(C3)C(=O)Nc3ncccc32)C(=O)N1CC(F)(F)F [atogepant]
- number of vomiting events compared to controls [1]: reduced number of vomiting events
- number of gaping events (index of nausea) compared to controls [2]: reduced number of gaping events
- presence in brain cortex extracts [3]: detectable
- presence in trigeminal ganglion extracts [3]: detectable

SMILES: N[C@@H]1c2cccnc2[C@H](OC(=O)N2CCC(n3c(=O)[nH]c4ncccc43)CC2)CC[C@H]1c1cccc(F)c1F [rimegepant]
- number of vomiting events compared to controls [1]: reduced number of vomiting events
- number of gaping events (index of nausea) compared to controls [2]: reduced number of gaping events
- presence in brain cortex extracts [3]: detectable
- presence in trigeminal ganglion extracts [3]: detectable

SMILES: C[C@@H]1[C@H](c2ccccc2)C[C@H](NC(=O)c2cnc3c(c2)C[C@@]2(C3)C(=O)Nc3ncccc32)C(=O)N1CC(F)(F)F [ubrogepant]
- number of vomiting events compared to controls [1]: reduced number of vomiting events
- number of gaping events (index of nausea) compared to controls [2]: reduced number of gaping events
- presence in brain cortex extracts [3]: detectable
- presence in trigeminal ganglion extracts [3]: detectable

SMILES: Cc1cc(C[C@@H](NC(=O)N2CCC(c3cc4ccccc4[nH]c3=O)CC2)C(=O)N2CCN(C3CCN(C)CC3)CC2)cc2cn[nH]c12 [zavegepant]
- number of vomiting events compared to controls [1]: reduced number of vomiting events
- number of gaping events (index of nausea) compared to controls [2]: reduced number of gaping events
- presence in brain cortex extracts [3]: detectable
- presence in trigeminal ganglion extracts [3]: detectable
